Assays:
CYP3A4/5 [1] = biological target: T1, CYP3A4/5 (Homo sapiens, UniProt P08684+P20815); experiment: Time dependent inhibition of CYP3A4/5 (unknown origin) assessed as remaining activity at 30 uM relative to control; type: protein assay; conditions: read-out: Activity
CYP3A4/5 [2] = biological target: T1, CYP3A4/5; experiment: Time dependent inhibition of CYP3A4/5 (unknown origin) at 30 uM measured after 30 mins relative to control; type: protein assay; conditions: read-out: TDI
[3] = biological target: Epidermal growth factor receptor (Homo sapiens, UniProt P00533, C797S/L858R/T790M); experiment: Binding affinity to EGFR L858R/T790M/C797S mutant (unknown origin) assessed as inhibition constant incubated for 30 mins in presence of ATP by Real-time fluorescence based analysis
physchem = conditions: octanol/water
[4] = biological target: Epidermal growth factor receptor (Homo sapiens, UniProt P00533); experiment: Binding affinity to wild type EGFR (unknown origin) assessed as inhibition constant incubated for 30 mins in presence of ATP by Real-time fluorescence based analysis
CYP3A4/5 [5] = biological target: T1, CYP3A4/5; experiment: Time dependent inhibition of CYP3A4/5 (unknown origin) in presence of NADPH; type: ADME, protein assay
CYP3A4/5 [6] = biological target: T1, CYP3A4/5; experiment: Time dependent inhibition of CYP3A4/5 (unknown origin) in absence of NADPH; type: ADME, protein assay
CYP3A4/5 [7] = biological target: T1, CYP3A4/5; experiment: Time dependent inhibition of CYP3A4/5 (unknown origin) at 30 uM measured after 10 mins relative to control; type: ADME, protein assay; conditions: read-out: TDI
CYP3A4/5 [8] = biological target: T1, CYP3A4/5; experiment: Reversible inhibition of CYP3A4/5 (unknown origin) at 30 uM relative to control; type: ADME, protein assay

Chain of Epidermal growth factor receptor (Homo sapiens, UniProt P00533, C797S/L858R/T790M) (P00533 25-1210 T790M/C797S/L858R limits assumed): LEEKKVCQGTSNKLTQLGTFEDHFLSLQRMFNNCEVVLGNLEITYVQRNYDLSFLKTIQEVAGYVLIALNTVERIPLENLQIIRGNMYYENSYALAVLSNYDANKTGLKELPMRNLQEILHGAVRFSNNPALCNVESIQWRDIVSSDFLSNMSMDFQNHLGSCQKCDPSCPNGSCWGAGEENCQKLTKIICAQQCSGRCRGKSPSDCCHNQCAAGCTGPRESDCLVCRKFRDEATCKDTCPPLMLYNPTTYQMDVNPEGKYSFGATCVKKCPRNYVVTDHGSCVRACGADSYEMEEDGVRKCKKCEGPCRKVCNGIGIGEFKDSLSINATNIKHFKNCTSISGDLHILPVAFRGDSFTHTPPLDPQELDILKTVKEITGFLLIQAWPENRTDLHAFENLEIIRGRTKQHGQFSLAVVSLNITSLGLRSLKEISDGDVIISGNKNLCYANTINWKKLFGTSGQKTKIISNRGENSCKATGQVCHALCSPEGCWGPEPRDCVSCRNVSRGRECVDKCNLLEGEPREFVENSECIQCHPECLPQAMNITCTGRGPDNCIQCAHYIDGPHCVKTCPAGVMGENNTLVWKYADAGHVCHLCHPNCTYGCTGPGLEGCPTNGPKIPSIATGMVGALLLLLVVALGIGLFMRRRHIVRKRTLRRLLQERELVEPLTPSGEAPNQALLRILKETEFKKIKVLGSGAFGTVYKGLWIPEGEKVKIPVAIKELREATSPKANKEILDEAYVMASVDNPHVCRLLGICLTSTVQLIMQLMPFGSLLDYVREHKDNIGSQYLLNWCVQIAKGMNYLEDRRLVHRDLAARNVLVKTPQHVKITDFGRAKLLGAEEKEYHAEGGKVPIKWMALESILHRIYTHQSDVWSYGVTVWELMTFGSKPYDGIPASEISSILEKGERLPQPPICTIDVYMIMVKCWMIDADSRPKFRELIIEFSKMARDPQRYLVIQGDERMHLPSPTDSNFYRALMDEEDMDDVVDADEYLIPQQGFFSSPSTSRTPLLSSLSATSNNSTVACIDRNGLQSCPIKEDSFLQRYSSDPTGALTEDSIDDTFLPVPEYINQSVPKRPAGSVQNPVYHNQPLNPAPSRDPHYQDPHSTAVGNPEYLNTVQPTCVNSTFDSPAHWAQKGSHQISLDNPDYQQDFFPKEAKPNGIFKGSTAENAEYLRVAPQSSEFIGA
Chain of Epidermal growth factor receptor (Homo sapiens, UniProt P00533) (P00533 whole entry): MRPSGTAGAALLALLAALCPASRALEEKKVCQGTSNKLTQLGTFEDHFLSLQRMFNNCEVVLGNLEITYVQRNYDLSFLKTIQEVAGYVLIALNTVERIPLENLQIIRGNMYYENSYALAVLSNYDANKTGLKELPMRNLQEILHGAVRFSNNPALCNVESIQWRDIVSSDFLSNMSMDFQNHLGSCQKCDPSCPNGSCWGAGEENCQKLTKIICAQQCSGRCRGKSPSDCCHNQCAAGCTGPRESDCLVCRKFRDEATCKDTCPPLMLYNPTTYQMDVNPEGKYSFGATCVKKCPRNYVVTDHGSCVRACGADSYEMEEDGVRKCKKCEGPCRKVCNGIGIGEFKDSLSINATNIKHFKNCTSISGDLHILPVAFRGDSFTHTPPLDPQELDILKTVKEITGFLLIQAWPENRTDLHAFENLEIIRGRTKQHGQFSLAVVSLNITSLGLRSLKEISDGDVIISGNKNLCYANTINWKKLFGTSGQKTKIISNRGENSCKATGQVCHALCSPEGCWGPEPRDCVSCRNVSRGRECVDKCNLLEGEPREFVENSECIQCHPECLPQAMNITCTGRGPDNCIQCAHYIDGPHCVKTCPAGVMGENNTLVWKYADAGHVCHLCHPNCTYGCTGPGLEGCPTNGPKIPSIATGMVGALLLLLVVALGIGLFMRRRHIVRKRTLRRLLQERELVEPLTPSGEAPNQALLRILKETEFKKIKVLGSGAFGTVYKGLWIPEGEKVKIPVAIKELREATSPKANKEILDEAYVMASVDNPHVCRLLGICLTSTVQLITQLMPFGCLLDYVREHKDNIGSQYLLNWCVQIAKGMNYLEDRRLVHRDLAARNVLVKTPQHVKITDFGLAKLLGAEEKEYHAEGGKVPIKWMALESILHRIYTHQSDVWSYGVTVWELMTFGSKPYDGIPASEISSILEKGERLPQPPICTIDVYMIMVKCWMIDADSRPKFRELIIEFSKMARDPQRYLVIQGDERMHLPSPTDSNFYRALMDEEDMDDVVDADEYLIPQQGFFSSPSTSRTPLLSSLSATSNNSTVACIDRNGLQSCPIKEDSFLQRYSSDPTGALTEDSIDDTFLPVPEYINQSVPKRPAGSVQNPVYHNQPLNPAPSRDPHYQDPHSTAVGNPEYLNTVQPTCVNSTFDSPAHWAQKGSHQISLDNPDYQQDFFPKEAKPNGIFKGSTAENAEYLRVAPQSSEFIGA

Row | SMILES | activity at 30 µM (CYP3A4/5 [1]) [%] | inhibition at 0.5 h, 30 µM (CYP3A4/5 [2]) [%] | Ki [3] [µM] | logD at 3 h (physchem) | also measured
1 | COC1CCN(c2nccc(Nc3cc4n(C)c(C)cn4n3)n2)CC1 | – | – | 6.1 | 2.56 | Ki [4]: Not_active
2 | COC1CCN(c2nccc(Nc3cc4n(C5CCC(=O)CC5)c(C)cn4n3)n2)CC1 | – | – | 0.027 | 2.27 | Ki [4]: Not_active
3 | CO[C@@H]1CCN(c2nccc(Nc3cc4n(C5CCC6(CC5)OCCO6)c(C#N)cn4n3)n2)C[C@@H]1F | 78 | 50 | – | – | –
4 | O[C@@H]1CCN(c2nccc(Nc3cc4n(C5CCC6(CC5)OCCO6)c(C(F)(F)F)cn4n3)n2)C[C@@H]1F | 25 | 8.3 | – | – | IC50 (CYP3A4/5 [5]): 2.3 µM; IC50 (CYP3A4/5 [6]): 5.7 µM
5 | Cc1cn2nc(Nc3ccnc(N4CC[C@@H](O)[C@@H](F)C4)n3)cc2n1C1C2CCCC1C2 (stereo partly drawn) | – | – | 0.0099 | 3.32 | Ki ([4]; read-out: Ki): 1.7 µM
6 | CCc1cn2nc(Nc3ccnc(N4CC[C@@H](OC)[C@@H](F)C4)n3)cc2n1[C@H]1CC[C@]2(CCN(C)C2=O)CC1 | 65 | 55.8 | – | – | –
7 | CN1CCC2(CCC(n3c(C(F)(F)F)cn4nc(Nc5ccnc(N6CC[C@@H](O)[C@@H](F)C6)n5)cc34)CC2)C1=O (stereo partly drawn) | 86 | 34 | – | – | IC50 (CYP3A4/5 [5]): > 1.4 µM; IC50 (CYP3A4/5 [6]): 22 µM
8 | COC1CCN(c2nccc(Nc3cc4n(C5CC5)c(C)cn4n3)n2)CC1 | – | – | 0.95 | 3.37 | Ki [4]: Not_active

Further lines, with some results ahead:

Row | activity at 30 µM (CYP3A4/5 [1]) [%] | inhibition at 0.5 h, 30 µM (CYP3A4/5 [2]) [%] | Ki [3] [µM] | logD at 3 h (physchem) | SMILES | also measured
9 | 98 | 64 | – | – | CCNC(=O)c1cn2nc(Nc3ccnc(N4CC[C@@H](OC)[C@@H](F)C4)n3)cc2n1C1CCC2(CC1)OCCO2 | –
10 | > 99 | 24 | – | – | CO[C@@H]1CCN(c2nccc(Nc3cc4n(C5CCC6(CC5)OCCO6)c(C(=O)NCC5CCN(C)CC5)cn4n3)n2)C[C@@H]1F | –
11 | 39 | 34.9 | – | – | CCc1cn2nc(Nc3ccnc(N4CC[C@@H](OC)[C@@H](F)C4)n3)cc2n1C1CCC2(CC1)OCCO2 | –
12 | > 99 | 26 | – | – | CO[C@@H]1CCN(c2nccc(Nc3cc4n(C5CCC6(CC5)OCCO6)c(C(=O)NCC5CN(C)C5)cn4n3)n2)C[C@@H]1F | –
13 | 57 | 52.4 | – | – | CO[C@@H]1CCN(c2nccc(Nc3cc4n(C5CCC6(CC5)OCCO6)c(C)cn4n3)n2)C[C@@H]1F | IC50 (CYP3A4/5 [5]): 156 µM; IC50 (CYP3A4/5 [6]): 0.82 µM; inhibition at 10 min, 30 µM (CYP3A4/5 [7]): 41.2%; inhibition at 30 µM (CYP3A4/5 [8]): 66%
